Experiments:
Type in all cases: in vivo
[1] = tested on: Anopheles gambiae (target-site-resistant and metabolic-resistant strain: RSPH); test: Glazed tile contact test, knock-down
Method: (§1) To produce a suitable preparation Transfluthrin was dissolved in acetone. The active compound solution was pipetted onto a glazed tile and, after drying, adult mosquitoes of the species: • Anopheles gambiae (target-site-resistant and metabolic-resistant strain: RSPH), • Anopheles gambiae (target-site-resitant and metabolic-resistant strain: Tiassalé), • Anopheles gambiae (tar et-site-resitant and metabolic-resistant strain: Akron), • Anopheles gambiae (target-site-resistant strain: VK7), and • Anopheles funestus (metabolic-resistant strain FUMOZ-R) were placed onto the treated tile (each strain was tested on separate tiles). The exposition time was 30 minutes.
(§2) 0.25 hours, 0.5 hours, 1 hour, 2 hour, 3 hour, 4 hour and 24 hours after contact to the treated surface, the knock-down proportion of the test animals in % was determined. Here, 100% (effect) means that all mosquitoes have been killed; 0% (effect) means that none of the mosquitoes have been killed.
Similarly as outlined in example 2 for Transfluthrin, Metofluthrin efficacy was assessed against • Anopheles gambiae (target-site-resistant and metabolic-resistant strain: RSPH), • Anopheles funestus (metabolic-resistant strain FUMOZ-R), and • Culex quinquefasciatus (metabolic-resistant to DDT; strain P00), with the results shown in Tables 10 to 12. 0.25 hours, 0.5 hours, 1 hour, 2 hour, 3 hour, 4 hour and 24 hours after contact to the treated surface, the knock-down proportion of the test animals in % is depicted in Tables 10 to 12. 100% (effect) means that all mosquitoes have been killed; 0% (effect) means that none of the mosquitoes have been killed.
Similarly as outlined in example 2 for Transfluthrin, Metofluthrin efficacy was assessed against • Anopheles gambiae (target-site-resistant and metabolic-resistant strain: RSPH), • Anopheles funestus (metabolic-resistant strain FUMOZ-R), and with the results shown in Tables […]. 0.25 hours, 0.5 hours, 1 hour, 2 hour and 3 hours after contact to the treated surface, the knock-down proportion of the test animals in % is depicted in Tables 13 to 14. 100% (effect) means that all mosquitoes have been killed; 0% (effect) means that none of the mosquitoes have been killed.

[2] = tested on: Anopheles gambiae (strain: Akron); test: Glazed tile contact test, knock-down
Method: as §1, §2

[3] = tested on: Cimex Lectularius, strain Cincinnati (CIN-1); test: Spray test on bed bugs on glazed tile; settings: for Amount of animals that are knocked down/killed: 10 bed bugs
Method: To produce a suitable preparation Transfluthrin was dissolved in acetone in various concentrations (0.1 mg Transfluthrin/ml; 0.01 mg Transfluthrin/ml and 0.001 mg Transfluthrin/ml). Efficacy tests were done by placing 10 bed bug test animals (Cimex Lectularius, strain Cincinnati (CIN-1)) onto a glazed tile. The prepared solutions in various concentractions were sprayed with a glass nozzle onto the bed bugs on the glazed tile. After spraying the bed bugs were transferred to plastic cups. 5 minutes, 10 minutes, 15 minutes, 20 minutes, 0.5 hour, 1 hour, 2 hour, 4 hour and 24 hours after the treatment, the knock-down proportion of the test animals was determined.

[4] = 0.064 g/ha, 0.25 h after contact
[5] = 0.064 g/ha, 0.5 h after contact
[6] = 0.32 g/ha, 0.25 h after contact

In the case of CC=CC1C(C(=O)OCc2c(F)c(F)c(COC)c(F)c2F)C1(C)C (stereo not drawn) [Metofluthrin, 2,3,5,6-Tetrafluoro-4-(methoxymethyl)benzyl 2,2-dimethyl-3-(prop-1-en-1-yl)cyclopropanecarboxylate], the Effect % [1, 4] was 0%, the Effect % [1, 5] was 0% and the Effect % ([1]; 0.064 g/ha, 1 h after contact) was 0%. The Effect % ([1]; 0.064 g/ha, 2 h after contact) was 0%, the Effect % ([1]; 0.064 g/ha, 3 h after contact) was 0% and the Effect % ([1]; 0.064 g/ha, 4 h after contact) was 10%. It also gave an Effect % ([1]; 0.064 g/ha, 24 h after contact) of 20%, an Effect % [1, 6] of 0% and an Effect % ([1]; 0.32 g/ha, 0.5 h after contact) of 10%. For the same compound, the Effect % ([1]; 0.32 g/ha, 1 h after contact) was 10%, the Effect % ([1]; 0.32 g/ha, 2 h after contact) was 10% and the Effect % ([1]; 0.32 g/ha, 3 h after contact) was 0%. For the same compound, the Effect % ([1]; 0.32 g/ha, 4 h after contact) was 10%, the Effect % ([1]; 0.32 g/ha, 24 h after contact) was 20% and the Effect % ([1]; 1.6 g/ha, 0.25 h after contact) was 100%. It also gave an Effect % ([1]; 1.6 g/ha, 0.5 h after contact) of 100%, an Effect % ([1]; 1.6 g/ha, 1 h after contact) of 100% and an Effect % ([1]; 1.6 g/ha, 2 h after contact) of 100%. For the same compound, the Effect % ([1]; 1.6 g/ha, 3 h after contact) was 100%, the Effect % ([1]; 1.6 g/ha, 4 h after contact) was 100% and the Effect % ([1]; 1.6 g/ha, 24 h after contact) was 100%. The Effect % ([1]; 8 g/ha, 0.25 h after contact) was 100%, the Effect % ([1]; 8 g/ha, 0.5 h after contact) was 100% and the Effect % ([1]; 8 g/ha, 1 h after contact) was 100%. The Effect % ([1]; 8 g/ha, 2 h after contact) was 100%, the Effect % ([1]; 8 g/ha, 3 h after contact) was 100% and the Effect % ([1]; 8 g/ha, 4 h after contact) was 100%. For the same compound, the Effect % ([1]; 8 g/ha, 24 h after contact) was 100%, the Effect % ([1]; 40 g/ha, 0.25 h after contact) was 100% and the Effect % ([1]; 40 g/ha, 0.5 h after contact) was 100%. The Effect % ([1]; 40 g/ha, 1 h after contact) was 100%, the Effect % ([1]; 40 g/ha, 2 h after contact) was 100% and the Effect % ([1]; 40 g/ha, 3 h after contact) was 100%. It also gave an Effect % ([1]; 40 g/ha, 4 h after contact) of 100%, an Effect % ([1]; 40 g/ha, 24 h after contact) of 100% and an Effect % ([1]; 200 g/ha, 0.25 h after contact) of 100%. It also gave an Effect % ([1]; 200 g/ha, 0.5 h after contact) of 100%, an Effect % ([1]; 200 g/ha, 1 h after contact) of 100% and an Effect % ([1]; 200 g/ha, 2 h after contact) of 100%. The Effect % ([1]; 200 g/ha, 3 h after contact) was 100%, the Effect % ([1]; 200 g/ha, 4 h after contact) was 100% and the Effect % ([1]; 200 g/ha, 24 h after contact) was 100%. It also gave an Effect % ([1]; 1000 g/ha, 0.25 h after contact) of 100%, an Effect % ([1]; 1000 g/ha, 0.5 h after contact) of 100% and an Effect % ([1]; 1000 g/ha, 1 h after contact) of 100%. The Effect % ([1]; 1000 g/ha, 2 h after contact) was 100%, the Effect % ([1]; 1000 g/ha, 3 h after contact) was 100% and the Effect % ([1]; 1000 g/ha, 4 h after contact) was 100%. It also gave an Effect % ([1]; 1000 g/ha, 24 h after contact) of 100%.

Compound CC1(C)[C@H](C=C(Cl)Cl)[C@H]1C(=O)OCc1c(F)c(F)cc(F)c1F [Transfluthrin, (1R,3S)-3-(2,2-Dichlorovinyl)-2,2-dimethyl-1-cyclopropanecarboxylic acid (2,3,5,6-tetrafluorophenyl)methyl ester] has an Effect % [2, 4] of 5%, an Effect % [2, 5] of 5% and an Effect % ([2]; 0.064 g/ha, 1 h after contact) of 10%. For the same compound, the Effect % ([2]; 0.064 g/ha, 2 h after contact) was 10%, the Effect % ([2]; 0.064 g/ha, 3 h after contact) was 5% and the Effect % ([2]; 0.064 g/ha, 4 h after contact) was 5%. It also gave an Effect % ([2]; 0.064 g/ha, 24 h after contact) of 15%, an Effect % [2, 6] of 5% and an Effect % ([2]; 0.32 g/ha, 0.5 h after contact) of 0%. The Effect % ([2]; 0.32 g/ha, 1 h after contact) was 5%, the Effect % ([2]; 0.32 g/ha, 2 h after contact) was 5% and the Effect % ([2]; 0.32 g/ha, 3 h after contact) was 10%. It also gave an Effect % ([2]; 0.32 g/ha, 4 h after contact) of 5%, an Effect % ([2]; 0.32 g/ha, 24 h after contact) of 10% and an Effect % ([2]; 200 g/ha, 0.25 h after contact) of 100%. The Effect % ([2]; 200 g/ha, 0.5 h after contact) was 100%, the “Amount of animals that are knocked down/killed” value ([3]; 0.001 mg Transfluthrin/ml Aceton, 10 min after spray) was 0 and the “Amount of animals that are knocked down/killed” value ([3]; 0.001 mg Transfluthrin/ml Aceton, 15 min after spray) was 0. For the same compound, the “Amount of animals that are knocked down/killed” value ([3]; 0.001 mg Transfluthrin/ml Aceton, 20 min after spray) was 0, the “Amount of animals that are knocked down/killed” value ([3]; 0.001 mg Transfluthrin/ml Aceton, 30 min after spray) was 0 and the “Amount of animals that are knocked down/killed” value ([3]; 0.001 mg Transfluthrin/ml Aceton, 60 min after spray) was 1. The “Amount of animals that are knocked down/killed” value ([3]; 0.001 mg Transfluthrin/ml Aceton, 120 min after spray) was 1, the “Amount of animals that are knocked down/killed” value ([3]; 0.001 mg Transfluthrin/ml Aceton, 240 min after spray) was 0 and the “Amount of animals that are knocked down/killed” value ([3]; 0.001 mg Transfluthrin/ml Aceton, 1440 min after spray) was 3. For the same compound, the “Amount of animals that are knocked down/killed” value ([3]; 0.01 mg Transfluthrin/ml Aceton, 10 min after spray) was 6, the “Amount of animals that are knocked down/killed” value ([3]; 0.01 mg Transfluthrin/ml Aceton, 15 min after spray) was 9 and the “Amount of animals that are knocked down/killed” value ([3]; 0.01 mg Transfluthrin/ml Aceton, 20 min after spray) was 10. For the same compound, the “Amount of animals that are knocked down/killed” value ([3]; 0.01 mg Transfluthrin/ml Aceton, 30 min after spray) was 10, the “Amount of animals that are knocked down/killed” value ([3]; 0.01 mg Transfluthrin/ml Aceton, 60 min after spray) was 10 and the “Amount of animals that are knocked down/killed” value ([3]; 0.01 mg Transfluthrin/ml Aceton, 120 min after spray) was 10. For the same compound, the “Amount of animals that are knocked down/killed” value ([3]; 0.01 mg Transfluthrin/ml Aceton, 240 min after spray) was 10, the “Amount of animals that are knocked down/killed” value ([3]; 0.01 mg Transfluthrin/ml Aceton, 1440 min after spray) was 7 and the “Amount of animals that are knocked down/killed” value ([3]; 0.1 mg Transfluthrin/ml Aceton, 10 min after spray) was 9. The “Amount of animals that are knocked down/killed” value ([3]; 0.1 mg Transfluthrin/ml Aceton, 15 min after spray) was 10, the “Amount of animals that are knocked down/killed” value ([3]; 0.1 mg Transfluthrin/ml Aceton, 20 min after spray) was 10 and the “Amount of animals that are knocked down/killed” value ([3]; 0.1 mg Transfluthrin/ml Aceton, 30 min after spray) was 10. For the same compound, the “Amount of animals that are knocked down/killed” value ([3]; 0.1 mg Transfluthrin/ml Aceton, 60 min after spray) was 10, the “Amount of animals that are knocked down/killed” value ([3]; 0.1 mg Transfluthrin/ml Aceton, 120 min after spray) was 10 and the “Amount of animals that are knocked down/killed” value ([3]; 0.1 mg Transfluthrin/ml Aceton, 240 min after spray) was 10. The “Amount of animals that are knocked down/killed” value ([3]; 0.1 mg Transfluthrin/ml Aceton, 1440 min after spray) was 9 and the “Efficiency against insecticide-resistant bed bug strain” value ([3]; in vivo) was “efficient”.

Reference: patent US20150289513A1, “USE OF A COMPOUND COMPRISING A POLYFLUOROBENZYL MOIETY AGAINST INSECTICIDE-RESISTANT PESTS” (priority 2012, published 2015)
